Reference: patent US11230526B1, “Cylcoalkenyl derivatives useful as agonists of the GPR120 and/or GPR40 receptors” (Janssen Pharmaceutica NV, priority 2018, dated 2022)

What was measured:
Human GPR120 short form = target: T1, Human GPR120 short form (Homo sapiens, UniProt Q5NUL3); assay: Human GPR120 calcium flux assay, Procedure Calcium B (4200 cells/well); type: cell-based
T1 construct: expressed in transfected cells
T1 sequence (Q5NUL3 1-361): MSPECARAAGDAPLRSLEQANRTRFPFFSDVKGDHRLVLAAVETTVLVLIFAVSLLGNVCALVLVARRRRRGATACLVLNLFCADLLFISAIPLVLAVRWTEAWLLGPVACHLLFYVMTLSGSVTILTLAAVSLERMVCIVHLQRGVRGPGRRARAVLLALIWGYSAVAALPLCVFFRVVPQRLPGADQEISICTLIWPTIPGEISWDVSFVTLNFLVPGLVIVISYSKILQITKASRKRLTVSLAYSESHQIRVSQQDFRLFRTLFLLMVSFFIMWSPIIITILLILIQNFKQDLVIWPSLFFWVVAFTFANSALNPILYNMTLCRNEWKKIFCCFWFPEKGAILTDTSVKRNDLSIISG
How it was run: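 Agonist EC50 came from a four-parameter fit of RFU (Fmax−Fmin) read over 300 s on FLIPR. Cells were HEK293 stably transfected with human GPR120 (NM_001195755.1) at 4200 per well, serum-starved 1 h and loaded with Fluo-4 NW dye with probenecid before ligand addition.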

human GPR40 = target: T2, human GPR40 (Homo sapiens, UniProt O14842); assay: GPR40 calcium flux assay, human GPR40; type: cell-based; details: HEK293 cells stably expressing GPR40; table does not say human or rat
T2 construct: expressed in transfected cells
How it was run: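 Cells preincubated 1 h at 37° C. in HBSS, 20 mM HEPES, 0.1% BSA, then Fluo 8 calcium dye 30 min at 37° C. and 15 min at room temperature.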

T2 sequence (O14842 whole entry): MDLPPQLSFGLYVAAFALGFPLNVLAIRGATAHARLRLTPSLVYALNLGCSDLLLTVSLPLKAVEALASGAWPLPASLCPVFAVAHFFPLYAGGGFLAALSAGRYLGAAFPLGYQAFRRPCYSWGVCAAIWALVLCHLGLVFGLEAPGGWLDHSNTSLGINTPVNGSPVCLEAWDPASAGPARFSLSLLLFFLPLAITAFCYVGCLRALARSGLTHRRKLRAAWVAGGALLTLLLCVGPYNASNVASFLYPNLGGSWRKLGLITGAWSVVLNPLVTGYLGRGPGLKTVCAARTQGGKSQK

Row | EC50 (Human GPR120 short form) [nM] | EC50 (human GPR40) [nM] | SMILES
1 | 1140 | 1510 | CC1CCC(c2ccccc2)=C1COc1ccc(CCC(=O)O)c(C(F)(F)F)c1 (centres unmarked) [Compound 367, 3-[4-[(5-methyl-2-phenyl-cyclopenten-1-yl)methoxy]-2-(trifluoromethyl)phenyl]Propanoic Acid]
2 | > 5000 | 125 | O=C(O)CCc1ccc(OCC2=C(CC3CCCCC3)CCC2)cc1C(F)(F)F [Compound 369, 3-[4-[[2-(cyclohexylmethyl)cyclopenten-1-yl]methoxy]-2-(trifluoromethyl)phenyl]Propanoic Acid]
3 | 1150 | 133 | CCCCC1=C(COc2ccc(CCC(=O)O)c(C(F)(F)F)c2)CCC1 [Compound 370, 3-[4-[(2-butylcyclopenten-1-yl)methoxy]-2-(trifluoromethyl)phenyl]Propanoic Acid]
4 | 2350 | 197 | O=C(O)CCc1ccc(OCC2=C(CCc3ccccc3)CCC2)cc1C(F)(F)F [Compound 372, 3-[4-[(2-phenethylcyclopenten-1-yl)methoxy]-2-(trifluoromethyl)phenyl]Propanoic Acid]
5 | 1450 | 2380 | Cc1cc(OCC2=C(C3CC3)CCC2)c(F)cc1CCC(=O)O [Compound 373, 3-[4-[(2-cyclopropylcyclopenten-1-yl)methoxy]-5-fluoro-2-methyl-phenyl]Propanoic Acid]
6 | 1430 | 199 | CC(C)CCC1=C(COc2ccc(CCC(=O)O)c(C(F)(F)F)c2)CCC1 [Compound 374, 3-[4-[(2-isopentylcyclopenten-1-yl)methoxy]-2-(trifluoromethyl)phenyl]Propanoic Acid]
7 | 88 | 962 | Cc1cc(OCC2=C(c3ccc(Cl)cc3)CC(F)(F)C2)c(F)cc1CCC(=O)O [Compound 375]
8 | 493 | 42 | CC(C)C1=C(COc2ccc(CCC(=O)O)c(C(F)(F)F)c2)CCC1 [Compound 377, 3-[4-[(2-isopropylcyclopenten-1-yl)methoxy]-2-(trifluoromethyl)phenyl]Propanoic Acid]
9 | > 5000 | 84 | CCC(CC)C1=C(COc2ccc(CCC(=O)O)c(C(F)(F)F)c2)CCC1 [Compound 380, 3-[4-[[2-(1-ethylpropyl)cyclopenten-1-yl]methoxy]-2-(trifluoromethyl)phenyl]Propanoic Acid]
10 | 1650 | 150 | CC(C)CC1=C(COc2ccc(CCC(=O)O)c(C(F)(F)F)c2)CC(F)(F)C1 [Compound 381, 3-[4-[(4,4-difluoro-2-isobutyl-cyclopenten-1-yl)methoxy]-2-(trifluoromethyl)phenyl]Propanoic Acid]
11 | 635 | 46 | O=C(O)CCc1ccc(OCC2=C(C3CCC3)CC(F)(F)C2)cc1C(F)(F)F [Compound 382, 3-[4-[(2-cyclobutyl-4,4-difluoro-cyclopenten-1-yl)methoxy]-2-(trifluoromethyl)phenyl]Propanoic Acid]
12 | 677 | 635 | CC(C)CC1=C(COc2ccc(CCC(=O)O)cc2)CCC1 [Compound 384, 3-[4-[(2-isobutylcyclopenten-1-yl)methoxy]phenyl]Propanoic Acid]
13 | 708 | 12 | CC(C)CC1=C(COc2ccc(CCC(=O)O)c(C(F)(F)F)c2)CCC1 [Compound 385, 3-(4-((2-isobutylcyclopent-1-en-1-yl)methoxy)-2-(trifluoromethyl)phenyl)Propanoic Acid]
14 | 1700 | 92 | O=C(O)CCc1ccc(OCC2=C(C3CCCCC3)CCC2)cc1C(F)(F)F [Compound 386, 3-[4-[(2-cyclohexylcyclopenten-1-yl)methoxy]-2-(trifluoromethyl)phenyl]Propanoic Acid]
15 | > 5000 | 71 | CC(C)(C)CC1=C(COc2ccc(CCC(=O)O)c(C(F)(F)F)c2)CCC1 [Compound 387, 3-[4-[[2-(2,2-dimethylpropyl)cyclopenten-1-yl]methoxy]-2-(trifluoromethyl)phenyl]Propanoic Acid]
16 | 1630 | 86 | CCC(C)C1=C(COc2ccc(CCC(=O)O)c(C(F)(F)F)c2)CCC1 (centres unmarked) [Compound 388, 3-[4-[(2-sec-butylcyclopenten-1-yl)methoxy]-2-(trifluoromethyl)phenyl]Propanoic Acid]
17 | 750 | 51 | CCCC1=C(COc2ccc(CCC(=O)O)c(C(F)(F)F)c2)CCC1 [Compound 389, 3-[4-[(2-propylcyclopenten-1-yl)methoxy]-2-(trifluoromethyl)phenyl]Propanoic Acid]

Row | EC50 (Human GPR120 short form) [nM] | EC50 (human GPR40) [nM] | SMILES
18 | 1190 | 23 | O=C(O)CCc1ccc(OCC2=C(C3CC4CCC3C4)CCC2)cc1C(F)(F)F (centres unmarked) [Compound 390, 3-[4-[(2-norbornan-2-ylcyclopenten-1-yl)methoxy]-2-(trifluoromethyl)phenyl]Propanoic Acid]
19 | 223 | 1400 | Cc1cc(OCC2=C(c3ccc(Br)cc3)CC(F)(F)C2)c(F)cc1CCC(=O)O [Compound 392, 3-[4-[[2-(4-bromophenyl)-4,4-difluoro-cyclopenten-1-yl]methoxy]-5-fluoro-2-methyl-phenyl]Propanoic Acid]
20 | 291 | 420 | O=C(O)CCc1ccc(OCC2=C(c3ccc(Br)cc3)CC(F)(F)C2)cc1Cl [Compound 393, 3-[4-[[2-(4-bromophenyl)-4,4-difluoro-cyclopenten-1-yl]methoxy]-2-chloro-phenyl]Propanoic Acid]
21 | 1410 | 129 | CC(C)CC1=C(COc2ccc(CCC(=O)O)c(Cl)c2)CCC1 [Compound 394, 3-[2-chloro-4-[(2-isobutylcyclopenten-1-yl)methoxy]phenyl]Propanoic Acid]
22 | 255 | 188 | O=C(O)CCc1ccc(OCC2=C(C3CCCC3)CCC2)cc1 [Compound 395, 3-[4-[(2-cyclopentylcyclopenten-1-yl)methoxy]phenyl]Propanoic Acid]
23 | 592 | 418 | O=C(O)CCc1ccc(OCC2=C(C3CCC3)CCC2)cc1 [Compound 397, 3-[4-[(2-cyclobutylcyclopenten-1-yl)methoxy]phenyl]Propanoic Acid]
24 | 556 | 8 | O=C(O)CCc1ccc(OCC2=C(C3CCCC3)CCC2)cc1C(F)(F)F [Compound 398, 3-[4-[(2-cyclopentylcyclopenten-1-yl)methoxy]-2-(trifluoromethyl)phenyl]Propanoic Acid]
25 | 671 | 15 | O=C(O)CCc1ccc(OCC2=C(C3CCC3)CCC2)cc1C(F)(F)F [Compound 399, 3-[4-[(2-cyclobutylcyclopenten-1-yl)methoxy]-2-(trifluoromethyl)phenyl]Propanoic Acid]
26 | 995 | 135 | O=C(O)CCc1ccc(OCC2=C(C3CCC3)CCC2)cc1Cl [Compound 400, 3-[2-chloro-4-[(2-cyclobutylcyclopenten-1-yl)methoxy]phenyl]Propanoic Acid]
27 | 304 | 311 | O=C(O)CCc1ccc(OCC2=C(c3ccc(F)cc3)CC(F)(F)C2)cc1Cl [Compound 401, 3-[2-chloro-4-[[4,4-difluoro-2-(4-fluorophenyl)cyclopenten-1-yl]methoxy]phenyl]Propanoic Acid]
28 | 278 | 1090 | Cc1cc(OCC2=C(c3ccc(F)cc3)CC(F)(F)C2)c(F)cc1CCC(=O)O [Compound 402, 3-[4-[[4,4-difluoro-2-(4-fluorophenyl)cyclopenten-1-yl]methoxy]-5-fluoro-2-methyl-phenyl]Propanoic Acid]
29 | 1490 | 1140 | O=C(O)CCc1ccc(OCC2=C(C(=O)c3ccccc3)CCC2)cc1C(F)(F)F [Compound 403, 3-[4-[(2-benzoylcyclopenten-1-yl)methoxy]-2-(trifluoromethyl)phenyl]Propanoic Acid]
30 | 1910 | 105 | O=C(O)CCc1ccc(OCC2=C(Cc3ccccc3F)CCC2)cc1C(F)(F)F [Compound 404, 3-[4-[[2-[(2-fluorophenyl)methyl]cyclopenten-1-yl]methoxy]-2-(trifluoromethyl)phenyl]Propanoic Acid]
31 | 1820 | 205 | Cc1cccc(CC2=C(COc3ccc(CCC(=O)O)c(C(F)(F)F)c3)CCC2)c1 [Compound 405, 3-[4-[[2-(m-tolylmethyl)cyclopenten-1-yl]methoxy]-2-(trifluoromethyl)phenyl]Propanoic Acid]
32 | > 5000 | 152 | Cc1cccc(CC2=C(COc3ccc(CCC(=O)O)c(Cl)c3)CCC2)c1 [Compound 406, 3-[2-chloro-4-[[2-(m-tolylmethyl)cyclopenten-1-yl]methoxy]phenyl]Propanoic Acid]
33 | 150 | 30 | O=C(O)CCc1ccc(OCC2=C(C3CCCC3)CC(F)(F)C2)cc1C(F)(F)F [Compound 407, 3-[4-[(2-cyclopentyl-4,4-difluoro-cyclopenten-1-yl)methoxy]-2-(trifluoromethyl)phenyl]Propanoic Acid]
34 | 86 | 25 | O=C(O)CCc1ccc(OCC2=C(C3CCCC3)CC(F)(F)C2)cc1Cl [Compound 409, 3-[2-chloro-4-[(2-cyclopentyl-4,4-difluoro-cyclopenten-1-yl)methoxy]phenyl]Propanoic Acid]
